Patent US20140135310A1, “SULPHONAMIDE DERIVATIVES OF ALICYCLIC AMINES FOR THE TREATMENT OF CENTRAL NERVOUS SYSTEM DISEASES” (Adamed Sp. z o.o., priority 2011, published 2014)

Experiments:
[1] = biological target: T1, H1 histaminergic receptors (Homo sapiens, UniProt P35367); assay: Radioligand binding assay, histaminergic H1 receptors; conditions: human recombinant (HEK-293 cells), [3H]pyrilamine 1 nM
T1 construct: expressed in transfected cells; host or cells: HEK-293 cells
From the text: (§1) The specific ligand binding to the receptors is defined as the difference between the total binding and the non-specific binding determined in the presence of the excess of unlabelled ligand.
(§2) The results are expressed as a percent of control specific binding ((measured specific binding/control specific binding)×100) and as a percent inhibition of control specific binding (100−((measured specific binding/control specific binding)×100)) obtained in the presence of the test compounds. The specific ligand binding to the receptors is defined as the difference between the total binding and the nonspecific binding determined in the presence of an excess of unlabelled ligand. Scintillation counting was the method of detection of ligand binding. The IC50 values (concentration causing a half-maximal inhibition of control specific binding) were determined by non-linear regression analysis of the competition curves generated with mean replicate values using Hill equation curve fitting (Y=D+[(A−D)/(1+(C/C50)nH)], where Y=specific binding, D=minimum specific binding, A=maximum specific binding, C=compound concentration, C50=IC50, and nH=slope factor). This analysis was performed using a software developed at Cerep (Hill software) and validated by comparison with data generated by the commercial software SigmaPlot® 4.0 for Windows® (© 1997 by SPSS Inc.). The inhibition constants (Ki) were calculated using the Cheng Prusoff equation (Ki=IC50/(1+(L/KD)), where L=concentration of radioligand in the assay, and KD=affinity of the radioligand for the receptor). A scatchard plot was used to determine the Kd.
Experimental conditions for tests are given in Table 14, and results of tests for representative compounds are presented in Table 15.

[2] = biological target: dopaminergic receptors D3 (Homo sapiens, UniProt P35462); assay: Radioligand binding assay, dopaminergic D3 receptors; conditions: test compound 1×10^−6 M
In short: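 Scintillation read-out. Specific = total − nonspecific (excess cold ligand). Data as % of control specific binding / % inhibition; IC50 by Hill fit; Ki = IC50/(1+L/KD), KD from Scatchard plot.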

[3] = biological target: T2, α2C adrenergic receptors (Homo sapiens, UniProt P18825); assay: Radioligand binding assay, adrenergic α2C receptors; conditions: test compound 1×10^−6 M
T2 construct: expressed in transfected cells; host or cells: CHO cells
T2 sequence (P18825 1-462): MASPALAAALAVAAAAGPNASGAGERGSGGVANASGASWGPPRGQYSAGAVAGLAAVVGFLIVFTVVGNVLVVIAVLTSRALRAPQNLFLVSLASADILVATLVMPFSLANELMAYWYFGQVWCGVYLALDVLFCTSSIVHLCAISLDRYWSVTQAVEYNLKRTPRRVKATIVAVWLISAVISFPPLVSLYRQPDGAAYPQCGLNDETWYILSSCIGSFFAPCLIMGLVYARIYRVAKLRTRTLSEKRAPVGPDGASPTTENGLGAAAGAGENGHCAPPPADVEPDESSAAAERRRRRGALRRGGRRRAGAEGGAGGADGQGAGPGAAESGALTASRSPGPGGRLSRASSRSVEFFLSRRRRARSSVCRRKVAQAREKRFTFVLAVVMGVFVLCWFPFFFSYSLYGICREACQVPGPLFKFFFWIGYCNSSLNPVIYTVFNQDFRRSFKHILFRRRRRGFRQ
From the text: as §1, §2
Experimental conditions for tests are given in Table 7, and results of tests for representative compounds are given in Tables 8 (α1 receptors) and in Tables 9 (α2C receptors).

[4] = biological target: T3, receptors D4.4 (Homo sapiens, UniProt P21917); assay: Radioligand binding assay, dopaminergic D4 (D4.4) receptors; conditions: test compound 1×10^−6 M
T3 sequence (P21917 1-419): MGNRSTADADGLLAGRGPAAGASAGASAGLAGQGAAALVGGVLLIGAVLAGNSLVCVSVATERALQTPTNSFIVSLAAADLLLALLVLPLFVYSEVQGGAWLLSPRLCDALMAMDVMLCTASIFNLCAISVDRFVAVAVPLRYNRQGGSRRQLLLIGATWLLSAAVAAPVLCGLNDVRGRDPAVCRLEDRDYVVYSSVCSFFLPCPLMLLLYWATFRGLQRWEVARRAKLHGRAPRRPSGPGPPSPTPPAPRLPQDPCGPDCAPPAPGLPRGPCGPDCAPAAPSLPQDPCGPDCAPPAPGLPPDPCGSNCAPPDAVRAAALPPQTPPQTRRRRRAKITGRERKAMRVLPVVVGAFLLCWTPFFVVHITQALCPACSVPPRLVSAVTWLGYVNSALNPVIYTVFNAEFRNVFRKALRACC
From the text: as §1, §2
Experimental conditions for tests are given in Table 1, the results of tests for representative compounds are given in Tables 2a and 2b (receptors D2 and D3) and in Table 3 (receptors D4).

[5] = biological target: dopaminergic receptors D2 (Homo sapiens, UniProt P14416); assay: Radioligand binding assay, dopaminergic D2 receptors; conditions: for inhibition at 1 µM: binding assay, test compound 1×10^−6 M
In short: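 Displacement of radioligand from human dopamine D2, D3 or D4.4 receptors, counted by scintillation; specific binding is total minus binding under excess unlabelled ligand. IC50 values come from Hill curve fits of percent inhibition, then converted to Ki by Cheng-Prusoff using Scatchard-derived KD.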

[6] = biological target: T4, 5-HT6 receptor (Homo sapiens, UniProt P50406); assay: Radioligand binding assay, serotoninergic 5-HT6 receptors; conditions: for inhibition at 1 µM: binding assay result in %, Table 5a; for Ki: read-out: Inhibition constants Ki, 5-HT6
T4 construct: purchased PerkinElmer
In short: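 Values are Ki from Cheng–Prusoff, taking IC50 from Hill nonlinear regression of competition curves and KD from a Scatchard plot. Specific binding was total minus binding with excess unlabelled ligand. Radioligand displacement was detected by scintillation counting, and data were also reported as percent of control specific binding.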

[7] = biological target: T5, 5-HT2A receptor (Homo sapiens, UniProt P28223); assay: Radioligand binding assay, serotoninergic 5-HT2A receptors; conditions: for inhibition at 1 µM: binding assay result in %, Table 5a
T5 construct: purchased PerkinElmer
In short: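 Competition curves from scintillation-counted specific binding (total minus binding with excess unlabelled ligand) were Hill-fitted to give IC50, converted to Ki via Cheng-Prusoff using Scatchard-derived Kd.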

[8] = biological target: T6, 5-HT2C receptor (Homo sapiens, UniProt P28335); assay: Radioligand binding assay, serotoninergic 5-HT2C receptors; conditions: test compound 1×10^−6 M
T6 construct: expressed in transfected cells; host or cells: HEK-293 cells
T6 sequence (P28335 33-458): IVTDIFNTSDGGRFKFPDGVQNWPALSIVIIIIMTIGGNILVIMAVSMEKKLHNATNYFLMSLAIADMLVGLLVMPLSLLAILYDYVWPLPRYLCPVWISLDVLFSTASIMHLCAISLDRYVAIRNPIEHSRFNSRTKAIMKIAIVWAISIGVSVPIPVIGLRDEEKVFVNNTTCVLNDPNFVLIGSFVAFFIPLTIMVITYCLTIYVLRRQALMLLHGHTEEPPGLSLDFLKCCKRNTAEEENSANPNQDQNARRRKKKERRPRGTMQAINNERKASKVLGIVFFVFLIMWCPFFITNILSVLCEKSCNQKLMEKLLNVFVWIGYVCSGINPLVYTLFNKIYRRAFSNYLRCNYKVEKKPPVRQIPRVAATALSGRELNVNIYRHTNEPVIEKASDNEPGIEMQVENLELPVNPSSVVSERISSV
From the text: as §1, §2
Experimental conditions for tests are given in Table 4, and results of tests for representative compounds of the invention are given in Table 5a and 5b (receptors 5-HT1A, 5-HT2A, 5-HT6 and 5-HT7) and in Table 6 (receptors 5-HT2C).

T5 sequence (P28223 whole entry): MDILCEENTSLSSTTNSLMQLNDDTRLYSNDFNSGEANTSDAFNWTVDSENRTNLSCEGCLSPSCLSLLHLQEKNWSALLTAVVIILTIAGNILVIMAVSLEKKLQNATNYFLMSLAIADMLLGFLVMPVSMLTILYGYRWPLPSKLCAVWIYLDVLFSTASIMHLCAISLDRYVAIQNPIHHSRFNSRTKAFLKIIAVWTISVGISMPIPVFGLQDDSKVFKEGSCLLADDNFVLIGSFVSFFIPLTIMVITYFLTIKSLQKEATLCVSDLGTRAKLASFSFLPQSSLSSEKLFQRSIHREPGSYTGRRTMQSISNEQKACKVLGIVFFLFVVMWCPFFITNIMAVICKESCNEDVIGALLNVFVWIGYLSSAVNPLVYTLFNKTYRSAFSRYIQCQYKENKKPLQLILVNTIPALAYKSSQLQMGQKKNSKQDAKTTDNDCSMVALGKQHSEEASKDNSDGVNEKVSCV
Sequence of dopaminergic receptors D2 (P14416 whole entry): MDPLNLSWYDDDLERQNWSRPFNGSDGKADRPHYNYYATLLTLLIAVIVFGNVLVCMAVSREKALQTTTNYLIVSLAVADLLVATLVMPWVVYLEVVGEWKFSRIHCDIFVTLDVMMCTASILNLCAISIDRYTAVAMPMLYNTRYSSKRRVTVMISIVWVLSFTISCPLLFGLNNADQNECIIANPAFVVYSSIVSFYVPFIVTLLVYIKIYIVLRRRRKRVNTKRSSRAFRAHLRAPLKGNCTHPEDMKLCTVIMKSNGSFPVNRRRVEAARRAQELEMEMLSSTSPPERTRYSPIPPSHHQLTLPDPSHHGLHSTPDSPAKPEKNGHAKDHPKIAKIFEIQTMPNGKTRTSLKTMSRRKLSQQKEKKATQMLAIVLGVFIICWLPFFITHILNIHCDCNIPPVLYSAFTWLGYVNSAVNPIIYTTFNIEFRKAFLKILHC
T4 sequence (P50406 whole entry): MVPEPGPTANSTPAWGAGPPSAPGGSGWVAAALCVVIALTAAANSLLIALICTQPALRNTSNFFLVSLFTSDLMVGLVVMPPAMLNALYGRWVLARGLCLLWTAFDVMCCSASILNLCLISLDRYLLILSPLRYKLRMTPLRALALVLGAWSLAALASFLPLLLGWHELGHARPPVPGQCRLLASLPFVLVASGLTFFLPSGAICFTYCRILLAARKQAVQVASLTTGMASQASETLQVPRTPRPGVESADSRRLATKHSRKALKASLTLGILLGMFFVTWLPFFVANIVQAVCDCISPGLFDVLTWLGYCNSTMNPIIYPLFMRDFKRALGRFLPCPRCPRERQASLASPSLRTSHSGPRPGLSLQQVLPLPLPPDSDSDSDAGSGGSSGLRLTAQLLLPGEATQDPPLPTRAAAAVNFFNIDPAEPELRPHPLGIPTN
Sequence of dopaminergic receptors D3 (P35462 whole entry): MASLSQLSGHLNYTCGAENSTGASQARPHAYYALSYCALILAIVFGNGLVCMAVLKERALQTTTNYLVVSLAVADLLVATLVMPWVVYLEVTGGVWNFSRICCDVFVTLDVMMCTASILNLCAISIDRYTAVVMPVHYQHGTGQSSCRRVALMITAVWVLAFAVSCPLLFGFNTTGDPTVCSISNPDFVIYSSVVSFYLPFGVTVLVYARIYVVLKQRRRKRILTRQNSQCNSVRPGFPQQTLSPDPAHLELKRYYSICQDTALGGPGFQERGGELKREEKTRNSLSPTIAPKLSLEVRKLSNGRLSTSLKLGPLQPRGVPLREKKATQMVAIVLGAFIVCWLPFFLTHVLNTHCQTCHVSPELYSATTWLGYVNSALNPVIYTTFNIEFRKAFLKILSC
T1 sequence (P35367 whole entry): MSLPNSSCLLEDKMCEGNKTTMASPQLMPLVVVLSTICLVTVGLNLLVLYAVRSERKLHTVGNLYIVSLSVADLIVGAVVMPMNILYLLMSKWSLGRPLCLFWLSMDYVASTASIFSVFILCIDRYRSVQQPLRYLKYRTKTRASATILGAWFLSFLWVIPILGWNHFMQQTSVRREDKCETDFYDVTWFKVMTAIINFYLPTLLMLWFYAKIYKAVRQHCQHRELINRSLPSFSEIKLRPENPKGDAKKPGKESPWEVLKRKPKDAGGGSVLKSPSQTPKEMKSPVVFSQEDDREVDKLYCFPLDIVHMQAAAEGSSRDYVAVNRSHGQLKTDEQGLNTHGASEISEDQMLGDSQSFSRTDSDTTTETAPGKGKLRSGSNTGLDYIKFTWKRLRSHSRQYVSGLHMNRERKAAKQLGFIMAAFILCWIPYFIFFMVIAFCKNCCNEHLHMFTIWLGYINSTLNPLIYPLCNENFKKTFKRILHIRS

SMILES | inhibition at 1 µM [1] [%] | inhibition at 1 µM [2] [%] | inhibition at 1 µM [3] [%] | inhibition at 1 µM [4] [%] | inhibition at 1 µM [5] [%] | inhibition at 1 µM [6] [%] | inhibition at 1 µM [7] [%] | inhibition at 1 µM [8] [%] | Ki [6] [µM] | Ki ([5]; read-out: Inhibition constants Ki for D2 receptors, D2) [µM] | Ki ([7]; read-out: Inhibition constants Ki, 5-HT2A) [µM]
O=S(=O)(NC1CCN(CCCc2noc3cc(F)ccc23)CC1)c1cccc2ccccc12 [Compound 34, N-[1-[3-(6-Fluoro-1,2-benzoxazol-3-yl)propyl]-4-piperidine]-naphthalene-1-sulphonamide] | 56 | 58 | 94 | 37 | 76 | 40 | 98 | 94 |  |  | 
O=S(=O)(NCC1CCN(CCCc2noc3cc(F)ccc23)C1)c1ccc(-c2ccccc2)cc1 (stereo not drawn) [Compound 241, N-[[1-[3-(6-Fluoro-1,2-benzoxazol-3-yl)propyl]pyrrolidin-3-yl]methyl]-4-phenyl-benzenesulphonamide] | 69 | 87 | 87 | 33 | 81 | 68 | 97 | 66 |  |  | 
O=S(=O)(NC1CCN(CCCc2c[nH]c3ccc(F)cc23)C1)c1ccc(Cl)cc1 (stereo not drawn) [Compound 77, 4-Chloro-N-[1-[3-(5-fluoro-1H-indol-3-yl)propyl]pyrrolidin-3-yl]-benzenesulphonamide] | 54 | 93 | 78 | 78 | 93 | 95 | 100 | 77 | 0.039 |  | 
Cc1cc(S(=O)(=O)NC2CCN(CCCc3noc4cc(F)ccc34)C2)c(C)s1 (stereo not drawn) [Compound 221, N-[1-[3-(6-Fluoro-1,2-benzoxazol-3-yl)propyl]pyrrolidin-3-yl]-2,5-dimethyl-thiophene-3-sulphonamide] | 66 | 92 | 88 | 93 | 97 | 92 | 101 | 81 |  |  | 
Cc1c(S(=O)(=O)N[C@H]2CCN(CCCc3noc4cc(F)ccc34)C2)sc2ccc(Cl)cc12 [Compound 205, 5-Chloro-N-[(3S)-1-[3-(6-fluoro-1,2-benzoxazol-3-yl)propyl]pyrrolidin-3-yl]-3-methyl-benzothiophene-2-sulphonamide] | 50 | 99 | 86 | 73 | 99 | 94 |  | 86 | 0.041 | 0.0016 | 0.0016
Cc1cc(S(=O)(=O)N[C@@H]2CCN(CCCc3noc4cc(F)ccc34)C2)c(C)s1 [Compound 222, N-[(3R)-1-[3-(6-Fluoro-1,2-benzoxazol-3-yl)propyl]pyrrolidin-3-yl]-2,5-dimethyl-thiophene-3-sulphonamide] | 79 | 74 | 77 | 98 | 97 | 94 | 99 | 65 |  |  | 
Cn1ccc2cc(S(=O)(=O)NCC3CCN(CCOc4cccc5c4OCCO5)C3)ccc21 (stereo not drawn) [Compound 308, N-[[1-[2-(2,3-Dihydro-1,4-benzodioxin-5-yloxy)ethyl]pyrrolidin-3-yl]methyl]-1-methyl-indole-5-sulphonamide] | 37 | 43 | 96 | 26 | 57 | 44 | 91 | 61 |  |  | 
O=S(=O)(NCC1CN(CCOc2cccc3c2OCCO3)C1)c1cc2ccccc2o1 [Compound 186, N-[[1-[2-(2,3-Dihydro-1,4-benzodioxin-5-yloxy)ethyl]azetidin-3-yl]methyl]-benzofuran-2-sulphonamide] | 17 | 78 | 96 | 55 | 77 | 32 | 87 | 79 |  |  | 
O=S(=O)(NC1CCN(CCCc2c[nH]c3ccc(F)cc23)C1)c1ccc(F)cc1 (stereo not drawn) [Compound 75, 4-Fluoro-N-[1-[3-(5-fluoro-1H-indol-3-yl)propyl]pyrrolidin-3-yl]benzene-sulphonamide] | 57 | 86 | 76 | 76 | 91 | 94 | 90 | 83 | 0.034 |  | 
O=S(=O)(NC1CCN(CCCc2noc3cc(F)ccc23)C1)c1cc2ccc(F)cc2s1 (stereo not drawn) [Compound 234, 6-Fluoro-N-[1-[3-(6-fluoro-1,2-benzoxazol-3-yl)propyl]pyrrolidin-3-yl]benzothiophene-2-sulphonamide] | 75 | 94 | 90 | 70 | 99 | 98 | 100 | 86 |  |  | 
